# “Also recorded” adds a separate entry of the source.
# Assays:
# mice or rat models = assay: Summary of cargo delivery to targeted organ (Table 1); type: in vivo; details: cargoes and route (IV, IM, SQ, NB) per peptide as listed in Table 1
# Source text: Table 1 lists a summary of cell-penetrating peptides that have been proven successful in delivering various cargo molecules to on or more targeted organ (e.g., by intravenous (IV), intramuscular (IM), or subcutaneous (SQ) administration, or intratraccheal instillation or nebulization (NB)) in mice or rat models.
# mice [1] = assay: In vivo delivery of Luciferase mRNA, intramuscular administration, bioluminescence imaging; details: IM, Luc mRNA
# Description: FIGS. 5A-5B show the potency of ADGN-peptide variants for in vivo delivery of Luciferase mRNA via intramuscular administration in mice. ADGN-peptide/luc mRNA particles containing 2.5 μg mRNA were formed in sterile water, and then diluted in 5% sucrose. Mice received […] injection o 25 μl ADGN-peptide/mRNA complexes. mRNA LUC expression was monitored by bioluminescence imaging after 12 h, 24 h and 48h (A). FIG. 5B show bioluminescence imaging at 24 hr in control and treated groups.
# (§1) Stable ADGN-peptides/mRNA were evaluated for in vivo delivery of Luciferase mRNA via intravenous and intramuscular administrations. Animals were treated with single dose of 5 moU modified Luc mRNA of 5 μg. 5 moU modified Luc mRNA (5 μg) in sterile water (GIBCO) were mixed with ADGN peptide (sterile water), volume for each sample was adjusted to 100 μl, with sterile water containing 5% Sucrose. Samples were mixed gently with vortex for 1 minute at low speed and incubated for 30 min at room temperature. Samples were filtered on 0.45 μm PES filters prior administration. For IV administration Mice received 100 μl intravenous (IV) injection of either ADGN-106/mRNA, ADGN-100/mRNA, ADGN-106RI/mRNA, ADGN-100-stearyl/mRNA, ADGN-100Hydro1/mRNA, ADGN-100Hydro2 or ADGN/mRNA complexes containing 10% of ADGN-100PEG (3 animals per group). As control, mice from group 3 (2 animals per group) received IV injection of 100 μl of naked 5 moU modified Luc mRNA (5 μg). For IM administration, mice received 25 μl (5 μg mRNA) IV injection of either ADGN-100/mRNA, ADGN-106/mRNA, ADGN-106RI/mRNA or ADGN/mRNA complexes containing 10% or 20% of ADGN-100PEG (2 animals per group). As control, mice from group 3 (2 animals per group) received IV injection of 25 μl of naked 5 moU modified Luc mRNA (5 μg).
# (§2) mRNA Luc expression was monitored by bioluminescence. Bioluminescence imaging was performed after 12, 24, 48 and 72 hrs. Mice received an i.p. injection of 150 μg/g luciferin for noninvasive bioluminescence imaging (IVIS Kinetic; PerkinElmer, Waltham, MA, USA).
# mice [2] = assay: In vivo delivery of pGL4 plasmid DNA, intravenous administration, bioluminescence imaging; details: 5 μg pGL4 plasmid
# Description: FIGS. 6A-6C show the potency of ADGN-peptide variants for in vivo delivery of Luciferase expressing plasmid pGL4 via intravenous administration in mice. ADGN-peptide/pGL4 particles containing 5 μg plasmid DNA were formed in sterile water, and then diluted in 5% sucrose. Mice received IV injection of 100 μl ADGN-peptide/plasmid complexes. pGL4 Luciferase expression was monitored by bioluminescence imaging after 12 h, 24h, 48h and 72h. […] Results were then expressed as values relative to day 0.
# (§3) Stable ADGN-peptides/pGL4.11 DNA were evaluated for in vivo delivery of Luciferase mRNA via intravenous and intramuscular administrations. Animals were treated with single dose of pGL4.11 plasmid DNA of 5 μg. via IV and 2.5 μg via intramuscular administration.
# pGL4.11 DNA plasmid (5 μg) in sterile water (GIBCO) were mixed with ADGN peptide (sterile water), volume for each sample was adjusted to 100 μl, with sterile water containing 5% Sucrose. Samples were mixed gently with vortex for 1 minute at low speed and incubated for 30 min at room temperature. Samples were filtered on 0.45 μm PES filters prior administration. For IV administration Mice received 100 μl IV injection of either ADGN-106/pGL4, ADGN-100/pGL4, ADGN-100RI/pGL4, ADGN-100-stearyl/PGL4, ADGN-100Hydro1/PGL4, ADGN-100Hydro2/PGL4, ADGN100 Hydro6/PGL4 or ADGN/PGL4 complexes containing 10% or 20% of ADGN-100PEG (3 animals per group). As control, mice from group 3 (2 animals per group) received IV injection of 100 μl of naked pGL4 plasmids (5 μg).
# (§4) Luciferase expression was monitored by bioluminescence. Bioluminescence imaging was performed after 12, 24, 48 and 72 hrs. Mice received an i.p. injection of 150 μg/g luciferin for noninvasive bioluminescence imaging (IVIS Kinetic; PerkinElmer, Waltham, MA, USA).
# mice [3] = assay: In vivo delivery of pGL4 plasmid DNA, intramuscular administration, bioluminescence imaging; details: IM, 2.5 μg pGL4 plasmid
# Description: FIGS. 7A-7B show the potency of ADGN-peptide variants for in vivo delivery of Luciferase expressing plasmid pGL4 via intramuscular administration in mice. ADGN-peptide/pGL4 luc particles containing 2.5 μg plasmid DNA were formed in sterile water, and then diluted in 5% sucrose. Mice received IV injection of 25 μl ADGN-peptide/pGL4 complexes. Luciferase expression was monitored by bioluminescence imaging after 12 h, 24 h and 48h (A). FIG. 7B show bioluminescence imaging at 24 hr in control and treated groups.
# as §3
# For IM administration, mice received 25 μl (2.5 μg of pGL4 plasmid) IV injection of either ADGN-100/PGL4, ADGN-106/PGL4, ADGN-100RI/PGL4, ADGN-100hydro1/PGL4, ADGN-100hydro6/PGL4, ADGN-100 stearyl/PGL4 or ADGN-100/PGL4 complexes containing 10% or 20% of ADGN-100PEG (2 animals per group). As control, mice from group 3 (2 animals per group) received IV injection of 25 μl of naked PGL4 plasmid (2.5 μg).
# as §4
# mice [4] = assay: In vivo delivery of Luciferase mRNA, intravenous administration, bioluminescence imaging; details: 5 μg Luc mRNA, single dose
# Description: FIGS. 4A-4D show the potency of ADGN-peptide variants for in vivo delivery of Luciferase mRNA via intravenous administration in mice. ADGN-peptide/luc mRNA particles containing 5 μg mRNA were formed in sterile water, and then diluted in 5% sucrose. Mice received IV injection of 100 μl ADGN-peptide/mRNA complexes. mRNA LUC expression was monitored by bioluminescence imaging after 12 h, 24 h, 48 h and 72 h. FIG. 4B show bioluminescence imaging at 24 hr in control and treated groups. Semi-quantitative data of luciferase signal in the liver (C) and in the lung (D) were obtained using the manufacturer's software (Living Image; PerkinElmer). Results were then expressed as values relative to day 0.
# as §1, §2
Substance,Targeted Organ (mice or rat models),increase of luciferase expression in the muscle / efficiency relative to ADGN-106 (mice [1]) [fold],luciferase expression (mice [1]),luciferase expression and tissues (mice [2]),luciferase expression (mice [3]),mRNA / luciferase expression and tissues (mice [4])
Ac-GYVS-Aun(CH2)6-ALWRALWRLWRSLWRLLWKA-NH2 [ADGN-106 hydro-6],Tumor/Pancreas/ and Lung,4,mediated Luciferase expression following intramuscular (IM) administration,–,–,–
Ac-YIGSR-(G)4-KWRSALWRWRLWRVRSWSR-NH2 (Ac-YIGSRGGGGKWRSALWRWRLWRVRSWSR-NH2) [ADGN-100-Hydro-1],Lung/Kidney/; also recorded: Liver,–,–,negligible luciferase expression,no significant expression,negligible luciferase expression

# From patent US12357695B2, “Peptides and nanoparticles for intracellular delivery of molecules” (AADIGEN, LLC, priority 2019, dated 2025)
